Active and inactive are the calls of the source. No cut-off for these calls is given here.
How the values were obtained:
MT4 [1] = assay: antiviral activity against HIV-1 in MT-4 cells using cell-protection assay at a concentration of 200 uM; format: functional, cell-based; conditions: Homo sapiens
MT4 [2] = assay: Average antiviral activity against HIV-1 in MT-4 cells using cell-protection assay; format: functional, cell-based; conditions: Homo sapiens

Row | SMILES | Activity (MT4 [1]) | IC50 (MT4 [2])
1 | Cc1cn(C2CC(N=[N+]=[N-])C(CCP(=O)(O)Oc3ccccc3)O2)c(=O)[nH]c1=O (stereo not given) | inactive | 
2 | Cc1cn([C@H]2C[C@H](N=[N+]=[N-])[C@@H](CO)O2)c(=O)[nH]c1=O [ZIDOVUDINE] |  | 60 nM
3 | Cc1cn(C2CC(N=[N+]=[N-])C(/C=C/P(=O)(O)Oc3ccccc3)O2)c(=O)[nH]c1=O (stereo not given) | inactive | 
4 | Cc1cn(C2CC(N=[N+]=[N-])C(/C=C/P(=O)(O)O)O2)c(=O)[nH]c1=O (stereo not given) | inactive | 
5 | Cc1cn(C2CC(N=[N+]=[N-])C(CCP(=O)(O)O)O2)c(=O)[nH]c1=O (stereo not given) | inactive | 

From ChEMBL document CHEMBL1125537, “3'-Azido-3',5'-dideoxythymidine-5'-methylphosphonic acid diphosphate: synthesis and HIV-1 reverse transcriptase inhibition” (J Med Chem, 1992)
